Measured values from patent US7462600B2, “Macrolides” (Pfizer Inc, priority 2004, dated 2008).
≈ marks a conversion by molar mass, not a printed value. Like-named read-outs stand apart in the source and are kept apart here.

Assays:
Type in all cases: cell-based
[1] = system: Streptococcus pyogenes 1079; assay: MIC, microtiter broth dilution (NCCLS M100-S14), S. pyogenes 1079 (ermB)
Outline: (§1)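 MIC read-out follows NCCLS M100-S14 interpretation of microtiter tray broth dilution. Test agents are prepared as DMSO stocks at 40 mg/ml.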

[2] = system: Streptococcus pneumoniae 1016; assay: MIC, microtiter broth dilution (NCCLS M100-S14), S. pneumoniae 1016 (susceptible)
Outline: as §1

[3] = system: Streptococcus pneumoniae 1095; settings: microtiter broth dilution
Outline: as §1

[4] = system: Streptococcus pneumoniae 1175; settings: microtiter broth dilution
Outline: as §1

[5] = system: Haemophilus influenzae 1218; assay: MIC, microtiter broth dilution (NCCLS M100-S14), H. influenzae 1218 (susceptible)
Outline: as §1

[6] = S. pneumoniae 1016 (susceptible)
[7] = H. influenzae 1218 (susceptible)

SMILES | MIC S. pyogenes 1079 ([1]; Streptococcus pyogenes 1079) [µg/mL] | MIC S. pneumo. 1016 ([2]; Streptococcus pneumoniae 1016) [µg/mL] | MIC S. pneumo. 1095 ([3]; Streptococcus pneumoniae 1095) [µg/mL] | MIC S. pneumo. 1175 ([4]; Streptococcus pneumoniae 1175) [µg/mL] | MIC H. influenzae 1218 ([5]; Haemophilus influenzae 1218) [µg/mL] | MIC S. pyogenes 1079 ([1]; S. pyogenes 1079 (ermB)) [µg/mL] | MIC S. pneumo. 1016 [2, 6] [µg/mL] | MIC S. pneumo. 1095 ([3]; S. pneumoniae 1095 (ermB)) [µg/mL] | MIC S. pneumo. 1175 ([4]; S. pneumoniae 1175 (mefA)) [µg/mL] | MIC H. influenzae 1218 [5, 7] [µg/mL]
CCC1OC(=O)C(C)C(=O)C(C)C(OC2OC(C)CC(N(C)C)C2O)C(C)(OC)CC(C)C(=O)C(C)C2N(C3CN(Cc4ccnc5c4ncn5C)C3)C(=O)OC12C (centres unmarked) [Example 1.93, 3-descladinosyl-11,12-dideoxy-6-O-methyl-3-oxo-12,11-(oxycarbonyl-(1-(3-methyl-3H-imidazo[4,5-b]pyridine-7-methyl)-azetidin-3-yl)-imino)-erythromycin A] | 1 (≈ 1.23 µM) | <0.063 | <0.063 | 1 (≈ 1.23 µM) | 2 (≈ 2.46 µM) | – | – | – | – | –
CCC1OC(=O)C(C)C(=O)C(C)C(OC2OC(C)CC(N(C)C)C2O)C(C)(OC)CC(C)C(=O)C(C)C2N(CC3CN(Cc4ccc5nccn5c4)C3)C(=O)OC12C (centres unmarked) [4.25] | 64 (≈ 78.8 µM) | <0.06 | 0.38 (≈ 0.468 µM) | 0.31 (≈ 0.382 µM) | 0.62 (≈ 0.764 µM) | – | – | – | – | –
CCC1OC(=O)C(C)C(=O)C(C)C(OC2OC(C)CC(N(C)C)C2O)C(C)(OC)CC(C)C(=O)C(C)C2N(C3CN(C(c4ccccc4)c4ccncc4)C3)C(=O)OC12C (centres unmarked) [Example 1.69, 3-descladinosyl-11,12-dideoxy-6-O-methyl-3-oxo-12,11-(oxycarbonyl-(1-(phenyl-(pyridin-4-yl)-methyl)-azetidin-3-yl)-imino)erythromycin A] | 8 (≈ 9.58 µM) | <0.06 | <0.06 | <0.06 | 1 (≈ 1.2 µM) | – | – | – | – | –
CCC1OC(=O)C(C)C(=O)C(C)C(OC2OC(C)CC(N(C)C)C2O)C(C)(OC)CC(C)C(=O)C(C)C2N(C3CN(S(=O)(=O)c4ccc(OC)cc4OC)C3)C(=O)OC12C (centres unmarked) [Example 3.31, 3-descladinosyl-11,12-dideoxy-6-O-methyl-3-oxo-12,11-(1-(oxycarbonyl-(2,4-dimethoxybenzenesulfonyl)-azetidin-3-yl)-imino)-erythromycin A] | 4 (≈ 4.61 µM) | <0.06 | 2 (≈ 2.3 µM) | 0.12 (≈ 0.138 µM) | 0.5 (≈ 0.576 µM) | – | – | – | – | –
CCC1OC(=O)C(C)C(=O)C(C)C(OC2OC(C)CC(N(C)C)C2O)C(C)(OC)CC(C)C(=O)C(C)C2N(CC3CCCN3Cc3ccnc4ccccc34)C(=O)OC12C (centres unmarked) [10.04] | – | – | – | – | – | 16 (≈ 19.1 µM) | <0.06 | <0.06 | <0.06 | 0.5 (≈ 0.597 µM)
CC[C@H]1OC(=O)[C@H](C)C(=O)[C@H](C)[C@@H](O[C@@H]2O[C@H](C)C[C@H](N(C)C)[C@H]2O)[C@](C)(OC)C[C@@H](C)C(=O)[C@H](C)[C@H]2N(CC3(O)CN(Cc4ccno4)C3)C(=O)O[C@]12C [7.11] | – | – | – | – | – | >64.00 | <0.06 | 4 (≈ 5.14 µM) | 0.5 (≈ 0.642 µM) | 2 (≈ 2.57 µM)
CC[C@H]1OC(=O)[C@H](C)C(=O)[C@H](C)[C@@H](O[C@@H]2O[C@H](C)C[C@H](N(C)C)[C@H]2O)[C@](C)(OC)C[C@@H](C)C(=O)[C@H](C)[C@H]2N(CC3(O)CN(Cc4nc(C)[nH]c4C)C3)C(=O)O[C@]12C [7.07] | – | – | – | – | – | >64.00 | 0.12 (≈ 0.149 µM) | 8 (≈ 9.93 µM) | 4 (≈ 4.96 µM) | 16 (≈ 19.9 µM)
